Test results published in US8871679B2, “Fungicidal mixtures comprising substituted 1-methylpyrazol-4-ylcarboxanilides” (BASF SE, priority 2008, dated 2014).
Read-outs that look alike come from different tables or passages of the source.

Tests used:
Format in all cases: cell-based
Leptosphaerium nodorum = assay: Microtiter test, activity against Leptospharium nodorum (Use Example 6); conditions: compound alone, 7 days
Alternaria solani = assay: Microtiter test, activity against Alternaria solani (Use Example 4); conditions: 7 days
Septoria tritici = assay: Microtiter test, activity against leaf blotch on wheat caused by Septoria tritici (Use Example 3); conditions: for inhibition of growth at 16 ppm / inhibition of growth at 63 ppm / inhibition of growth at 4 ppm: Zymoseptoria tritici, 168 h, read-out: Observed efficacy
Colletotrichum truncatum = assay: Microtiter test, activity against Colletotrichum truncatum (Use Example 5); conditions: compound alone, 7 days
Pyricularia oryzae = test system: Pyricularia oryzae
Fusarium culmorum = assay: Microtiter test, activity against Fusarium culmorum (Use Example 7); conditions: compound alone, 7 days
[1] = Alternaria solani, 168 h, read-out: Observed efficacy
[2] = 0.25 ppm, compound alone, day 7
[3] = 0.016 ppm, compound alone, day 7
[4] = Alternaria solani, 168 h, 63 ppm, compound alone, read-out: Observed efficacy

O=S1OCC2C(CO1)C1(Cl)C(Cl)=C(Cl)C2(Cl)C1(Cl)Cl (centres unmarked) [Endosulfan, endosulfan]
Observed efficacy (Leptosphaerium nodorum; 63 ppm): 5% | inhibition of growth at 16 ppm (Alternaria solani; [1]): 13% | inhibition of growth at 16 ppm (Septoria tritici): 3% | inhibition of growth at 63 ppm (Septoria tritici): 26% | Observed efficacy (Colletotrichum truncatum; 63 ppm): 8% | Observed efficacy (Pyricularia oryzae; 16 ppm, compound alone, day 7): 22% | Observed efficacy (Pyricularia oryzae; 63 ppm, compound alone, day 7): 73%

COC(=O)N(C(=O)N1CO[C@@]2(C(=O)OC)Cc3cc(Cl)ccc3C2=N1)c1ccc(OC(F)(F)F)cc1 [Indoxacarb, indoxacarb]
Observed efficacy (Alternaria solani; 16 ppm, compound alone): 0% | Observed efficacy (Septoria tritici; 16 ppm, compound alone, day 7): 9% | Observed efficacy (Septoria tritici; 63 ppm, compound alone, day 7): 19% | Observed efficacy (Pyricularia oryzae; 1 ppm, compound alone, day 7): 0%

COP(=O)(NC(C)=O)SC (centres unmarked) [Acephate, acephate]
inhibition of growth at 1 ppm (Alternaria solani; [1]): 3% | inhibition of growth at 4 ppm (Septoria tritici): 2%

CNC(=O)O/N=C/C(C)(C)SC [Aldicarb, aldicarb]
inhibition of growth at 16 ppm (Septoria tritici): 7%

COP(N)(=O)SC (centres unmarked) [Methamidophos, methamidophos]
inhibition of growth at 1 ppm (Alternaria solani; [1]): 8% | inhibition of growth at 63 ppm (Alternaria solani; [1]): 0% | inhibition of growth at 4 ppm (Septoria tritici): 5%

CCOCn1c(-c2ccc(Cl)cc2)c(C#N)c(Br)c1C(F)(F)F [Chlorfenapyr, chlorfenapyr]
Observed efficacy (Leptosphaerium nodorum; 63 ppm): 8% | inhibition of growth at 16 ppm (Septoria tritici; 16 ppm, compound alone, day 7): 8% | Observed efficacy (Pyricularia oryzae; 4 ppm, compound alone, day 7): 17% | Observed efficacy (Pyricularia oryzae; 63 ppm, compound alone, day 7): 38%

CC1(C)C(C=C(Cl)Cl)C1C(=O)OC(C#N)c1cccc(Oc2ccccc2)c1 (stereo not drawn) [alpha-Cypermethrin, alpha-cypermethrin]
inhibition of growth at 63 ppm (Alternaria solani; [1]): 0% | Observed efficacy (Pyricularia oryzae; 63 ppm, compound alone, day 7): 41%

CNC(=O)CSP(=S)(OC)OC [Dimethoate, dimethoate]
inhibition of growth at 4 ppm (Septoria tritici): 2%

CC1(C)[C@H](C(=O)O[C@H](C#N)c2cccc(Oc3ccccc3)c2)[C@@H]1C=C(Br)Br [Deltamethrin, deltamethrin]
inhibition of growth at 1 ppm (Alternaria solani; [1]): 0% | inhibition of growth at 4 ppm (Alternaria solani; [1]): 5% | inhibition of growth at 16 ppm (Alternaria solani; [1]): 0% | inhibition of growth at 16 ppm (Septoria tritici): 0% | inhibition of growth at 63 ppm (Septoria tritici): 3% | Observed efficacy (Pyricularia oryzae; 4 ppm, compound alone, day 7): 0%

CC1(C)CNC(=NN=C(/C=C/c2ccc(C(F)(F)F)cc2)/C=C/c2ccc(C(F)(F)F)cc2)NC1 [Hydramethylnon, hydramethylnon]
inhibition of growth at 1 ppm (Alternaria solani; [1]): 7% | inhibition of growth at 16 ppm (Septoria tritici): 0% | inhibition of growth at 63 ppm (Septoria tritici): 4% | Observed efficacy (Pyricularia oryzae; 4 ppm, compound alone, day 7): 5%

abamectin
Observed efficacy (Alternaria solani; 1 ppm, compound alone): 2%

CC1(C)[C@H](C(=O)O[C@H](C#N)c2cccc(Oc3ccccc3)c2)[C@@H]1/C=C(\Cl)C(F)(F)F (racemic) [lambda-Cyalothrin, lambda-cyhalothrin]
inhibition of growth at 16 ppm (Septoria tritici; 16 ppm, compound alone, day 7): 10% | inhibition of growth at 63 ppm (Septoria tritici; 63 ppm, compound alone, day 7): 29%

CCOP(=S)(OCC)SCSC(C)(C)C [Terbufos, terbufos]
inhibition of growth at 16 ppm (Septoria tritici): 14%

Cn1cc(C(=O)Nc2ccccc2C2CC2C2CC2)c(C(F)F)n1 (single isomer, unassigned) [Sedaxane (trans diastereoisomer), N-(trans-2-bicycloprop-2-ylphenyl)-3-difluoromethyl-1-methyl-1H-pyrazole-4-carboxamide]
Observed efficacy (Leptosphaerium nodorum; 0.25 ppm): 17% | Observed efficacy (Alternaria solani; 0.063 ppm, compound alone): 0% | Observed efficacy (Alternaria solani; 0.25 ppm, compound alone): 20% | Observed efficacy (Septoria tritici; [2]): 57% | Observed efficacy (Fusarium culmorum; 0.25 ppm): 2% | Observed efficacy (Colletotrichum truncatum; 0.25 ppm): 3% | Observed efficacy (Pyricularia oryzae; [3]): 1%

CC(C)C1C2CCC1c1c(NC(=O)c3cn(C)nc3C(F)F)cccc12 (centres unmarked) [Isopyrazam, isopyrazam]
Observed efficacy (Leptosphaerium nodorum; 0.25 ppm): 13% | Observed efficacy (Alternaria solani): 2% | Observed efficacy (Septoria tritici): 58% | Observed efficacy (Colletotrichum truncatum; 0.25 ppm): 14% | Observed efficacy (Pyricularia oryzae; [3]): 15%

Cc1c(COC(=O)[C@@H]2[C@H](/C=C(\Cl)C(F)(F)F)C2(C)C)cccc1-c1ccccc1 (racemic) [Bifenthrin, bifenthrin]
inhibition of growth at 63 ppm (Alternaria solani; [4]): 1%

Cn1cc(C(=O)Nc2ccc(F)cc2-c2ccc(Cl)c(Cl)c2)c(C(F)F)n1 [Bixafen, bixafen]
Observed efficacy (Leptosphaerium nodorum; 0.25 ppm): 16% | Observed efficacy (Alternaria solani): 0% | Observed efficacy (Septoria tritici): 48% | Observed efficacy (Colletotrichum truncatum; 0.25 ppm): 6% | Observed efficacy (Pyricularia oryzae; 0.063 ppm, compound alone, day 7): 6% | Observed efficacy (Pyricularia oryzae; [2]): 6%

CC(C)([CH2][Sn]([CH2]C(C)(C)c1ccccc1)([CH2]C(C)(C)c1ccccc1)[O][Sn]([CH2]C(C)(C)c1ccccc1)([CH2]C(C)(C)c1ccccc1)[CH2]C(C)(C)c1ccccc1)c1ccccc1 [Fenbutadin-oxyd, fenbutatin oxide]
Observed efficacy (Pyricularia oryzae): 39%

Cc1cc(C(F)(C(F)(F)F)C(F)(F)F)ccc1NC(=O)c1cccc(I)c1C(=O)NC(C)(C)CS(C)(=O)=O [Flubendiamid, flubendiamide]
Observed efficacy (Leptosphaerium nodorum; 63 ppm): 22% | inhibition of growth at 63 ppm (Alternaria solani; [4]): 0% | inhibition of growth at 63 ppm (Septoria tritici; 63 ppm, compound alone, day 7): 37% | Observed efficacy (Fusarium culmorum; 63 ppm): 3% | Observed efficacy (Colletotrichum truncatum; 63 ppm): 0% | Observed efficacy (Pyricularia oryzae; 4 ppm, compound alone, day 7): 0% | Observed efficacy (Pyricularia oryzae; 63 ppm, compound alone, day 7): 15%

Cn1cc(C(=O)Nc2ccccc2-c2cc(F)c(F)c(F)c2)c(C(F)F)n1 [Ia, N-(3′,4′,5′-trifluorobiphenyl-2-yl)-3-difluoro-methyl-1-methyl-1H-pyrazole-4-carboxamide]
Observed efficacy (Alternaria solani): 29% | Observed efficacy (Septoria tritici): 29% | Observed efficacy (Pyricularia oryzae; 0.004 ppm, compound alone, day 7): 3%

Cc1nn(C)c(F)c1C(=O)Nc1ccccc1C(C)CC(C)C (centres unmarked) [Penflufen, N-[2-(1,3-dimethylbutyl)-phenyl]-1,3-dimethyl-5-fluor-1H-pyrazole-4-carboxamide]
Observed efficacy (Alternaria solani): 0% | Observed efficacy (Septoria tritici): 44% | Observed efficacy (Pyricularia oryzae; [2]): 5%
